Experimental data: patent publication US20240116985A1, “STAPLED PEPTIDES AND METHODS THEREOF” (priority 2020, published 2024)
pIC50: −log10 of the molar value. Like-named read-outs stand apart in the source and are kept apart here.

Target: T1, full-length beta-Catenin (Uniprot ID P35222) (Homo sapiens, UniProt P35222)
T1 construct: 10 nM full-length beta-Catenin (Uniprot ID P35222)
T1 sequence (P35222 1-781): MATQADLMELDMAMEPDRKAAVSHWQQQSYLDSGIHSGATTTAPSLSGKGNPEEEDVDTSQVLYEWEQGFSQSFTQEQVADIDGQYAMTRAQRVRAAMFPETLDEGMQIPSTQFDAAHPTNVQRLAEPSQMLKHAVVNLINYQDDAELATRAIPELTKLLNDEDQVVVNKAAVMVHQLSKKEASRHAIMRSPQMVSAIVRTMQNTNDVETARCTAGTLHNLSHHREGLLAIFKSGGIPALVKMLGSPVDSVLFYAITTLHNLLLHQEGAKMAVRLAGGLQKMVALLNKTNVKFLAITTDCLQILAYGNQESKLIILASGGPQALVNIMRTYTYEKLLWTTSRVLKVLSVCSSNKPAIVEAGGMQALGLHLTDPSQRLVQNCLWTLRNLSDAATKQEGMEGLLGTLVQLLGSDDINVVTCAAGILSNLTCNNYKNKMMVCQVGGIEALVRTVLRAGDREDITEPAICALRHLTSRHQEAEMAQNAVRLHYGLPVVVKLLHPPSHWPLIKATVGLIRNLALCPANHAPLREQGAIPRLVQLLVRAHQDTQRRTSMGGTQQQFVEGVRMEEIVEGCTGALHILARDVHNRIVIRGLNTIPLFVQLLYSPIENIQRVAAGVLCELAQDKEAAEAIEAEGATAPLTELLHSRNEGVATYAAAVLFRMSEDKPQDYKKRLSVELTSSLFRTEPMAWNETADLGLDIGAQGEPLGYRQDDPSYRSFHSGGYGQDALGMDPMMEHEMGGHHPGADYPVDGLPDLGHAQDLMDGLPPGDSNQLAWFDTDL
Test: Fluorescence polarization IC50 (beta-catenin / 5FAM-TCF4 10-53 competition)
Type: binding
Details: fluorescence polarization; for pIC50: read-out: beta-Catenin FP IC50; for IC50: beta-Catenin FP IC50 (nM)

pIC50	SMILES	IC50 [nM]
6.30	CC(C)C[C@@H]1NC(=O)[C@H](Cc2ccccc2)NC(=O)[C@H](C)NC(=O)[C@H](C)NC(=O)[C@H](CN(CC(=O)O)CC(F)(F)F)NC(=O)[C@H](CC(=O)O)NC(=O)C2(CCCCCCCCOC(=O)N3CC[C@@](C(=O)N[C@@H](Cc4ccsc4)C(=O)N[C@@H](Cc4csc5ccccc45)C(=O)N[C@@H](CCC(N)=O)C(N)=O)(C3)NC1=O)CCCCCCS(=O)(=O)N1CCC[C@@H]1C(=O)N[C@@H](CC(=O)O)C(=O)N[C@@H](CC(C)(C)C)C(=O)N2 (stereo partly drawn) [I-2267, ProSAm3-Asp-Npg-B5-Asp-TfeGA-Ala-Ala-Phe-Leu-PyrS2-3Thi-BztA-Gln-NH2]	
	CC(=O)N1CCC[C@]12CC=CCCCC1(CCCC=CCCCOC(=O)N3CC[C@@](C(=O)N[C@@H](Cc4ccsc4)C(=O)N[C@@H](Cc4csc5ccccc45)C(=O)N[C@@H](CC(N)=O)C(=O)N[C@@H](C)C(=O)N[C@@H](C)C(=O)N[C@@H](C)C(=O)N[C@@H](C)C(=O)N[C@@H](C)C(=O)N[C@@H](C)C(=O)N[C@@H](C)C(=O)N[C@@H](C)C(=O)N[C@@H](C)C(N)=O)(C3)NC(=O)[C@H](CC(C)C)NC(=O)[C@H](Cc3ccccc3)NC(=O)[C@H](C)NC(=O)[C@H](C)NC(=O)[C@H](Cc3cccc(C(=O)O)c3)NC(=O)[C@H](CC(=O)O)NC1=O)NC(=O)[C@H](CC(C)(C)C)NC(=O)[C@H](CC(=O)O)NC2=O (some centres unmarked) [I-2270]	40
	C[C@@H]1NC(=O)[C@H](C)NC(=O)[C@H](CC(=O)O)NC(=O)[C@H](CC(=O)O)NC(=O)C2(CCCC=CCCCOC(=O)N3CC[C@@](C(=O)N[C@@H](Cc4ccsc4)C(=O)N[C@@H](Cc4csc5ccccc45)C(=O)N[C@@H](Cc4c[nH]cn4)C(N)=O)(C3)NC(=O)[C@H](CCC(N)=O)NC(=O)[C@H](Cc3ccccc3)NC1=O)CCCC=CC[C@]1(CCCN1C(=O)CBr)C(=O)N[C@@H](CC(=O)O)C(=O)N[C@@H](CC(C)(C)C)C(=O)N2 (stereo partly drawn) [I-2285, BrAc-PL3-Asp-Npg-B5-Asp-Asp-Ala-Ala-Phe-Gln-PyrS2-3Thi-BztA-His-NH2]	94
	CC(C)C[C@@H]1NC(=O)[C@H](Cc2ccccc2)NC(=O)[C@H](C)NC(=O)[C@H](C)NC(=O)[C@H](Cc2cccc(C(=O)O)c2)NC(=O)[C@H](CC(=O)O)NC(=O)C2(CCCC=CCCCOC(=O)N3CC[C@@](C(=O)N[C@@H](Cc4ccccc4Cl)C(=O)N[C@@H](Cc4csc5ccccc45)C(=O)N[C@@H](C)C(N)=O)(C3)NC1=O)CCCC=CC[C@]1(CCCN1C(=O)CBr)C(=O)N[C@@H](CC(=O)O)C(=O)N[C@@H](CC(C)(C)C)C(=O)N2 (stereo partly drawn) [I-2286, BrAc-PL3-Asp-Npg-B5-Asp-3COOHF-Ala-Ala-Phe-Leu-PyrS2-2C1F-BztA-Ala-NH2]	88
6.29	CCCCOC(=O)N1CCC[C@]12CC=CCCCC1(CCCC=CCCCOC(=O)N3CC[C@@](C(=O)N[C@@H](Cc4ccccc4Cl)C(=O)N[C@@H](Cc4csc5ccccc45)C(=O)N[C@@H](C)C(N)=O)(C3)NC(=O)[C@H](CC(C)C)NC(=O)[C@H](Cc3ccccc3)NC(=O)[C@H](C)NC(=O)[C@H](C)NC(=O)[C@H](Cc3cccc(C(=O)O)c3)NC(=O)[C@H](CC(=O)O)NC1=O)NC(=O)[C@H](CC(C)(C)C)NC(=O)[C@H](CC(=O)O)NC2=O (stereo partly drawn) [I-2304, CO2Bu-PL3-Asp-Npg-B5-Asp-3COOHF-Ala-Ala-Phe-Leu-PyrS2-2C1F-BztA-Ala-NH2]	
7.08	COC(=O)N1CCC[C@]12CC=CCCCC1(CCCC=CCCCOC(=O)N3CC[C@@](C(=O)N[C@@H](Cc4ccccc4Cl)C(=O)N[C@@H](Cc4csc5ccccc45)C(=O)N[C@@H](C)C(N)=O)(C3)NC(=O)[C@H](CC(C)C)NC(=O)[C@H](Cc3ccccc3)NC(=O)[C@H](C)NC(=O)[C@H](C)NC(=O)[C@H](Cc3cccc(C(=O)O)c3)NC(=O)[C@H](CC(=O)O)NC1=O)NC(=O)[C@H](CC(C)(C)C)NC(=O)[C@H](CC(=O)O)NC2=O (stereo partly drawn) [I-2324, CO2Me-PL3-Asp-Npg-B5-Asp-3COOHF-Ala-Ala-Phe-Leu-PyrS2-2C1F-BztA-Ala-NH2]	
	C[C@@H]1NC(=O)[C@H](C)NC(=O)[C@H](CC(=O)O)NC(=O)[C@H](CC(=O)O)NC(=O)C2(CCCC=CCCCOC(=O)N3CC[C@@](C(=O)N[C@@H](Cc4ccsc4)C(=O)N[C@@H](Cc4csc5ccccc45)C(=O)N[C@@H](Cc4c[nH]cn4)C(N)=O)(C3)NC(=O)[C@H](CCC(N)=O)NC(=O)[C@H](Cc3ccccc3)NC1=O)CCCC=CC[C@]1(CCCN1C(=O)Oc1ccccc1)C(=O)N[C@@H](CC(=O)O)C(=O)N[C@@H](CC(C)(C)C)C(=O)N2 (stereo partly drawn) [I-2326, CO2Ph-PL3-Asp-Npg-B5-Asp-Asp-Ala-Ala-Phe-Gln-PyrS2-3Thi-BztA-His-NH2]	185
	CC(C)C[C@@H]1NC(=O)[C@H](Cc2ccccc2)NC(=O)[C@H](C)NC(=O)[C@H](C)NC(=O)[C@H](Cc2cccc(C(=O)O)c2)NC(=O)[C@H](CC(=O)O)NC(=O)C2(CCCC=CCCCOC(=O)N3CC[C@@](C(=O)N[C@@H](Cc4ccccc4Cl)C(=O)N[C@@H](Cc4csc5ccccc45)C(=O)N[C@@H](C)C(N)=O)(C3)NC1=O)CCCC=CC[C@]1(CCCN1C(=O)Oc1ccccc1)C(=O)N[C@@H](CC(=O)O)C(=O)N[C@@H](CC(C)(C)C)C(=O)N2 (stereo partly drawn) [I-2327, CO2Ph-PL3-Asp-Npg-B5-Asp-3COOHF-Ala-Ala-Phe-Leu-PyrS2-2C1F-BztA-Ala-NH2]	376
5.42	CC(=O)N1CCC[C@]12CC=CCCCC1(CCCC=CCCCOC(=O)N3CC[C@@](C(=O)N[C@@H](Cc4ccsc4)C(=O)N[C@@H](Cc4csc5ccccc45)C(=O)N[C@@H](CCC(N)=O)C(N)=O)(C3)NC(=O)[C@H](CC(N)=O)NC(=O)[C@H](Cc3ccccc3)NC(=O)[C@H](C)NC(=O)[C@H](C)NC(=O)[C@H](CC(=O)O)NC(=O)[C@H](CC(=O)O)NC1=O)NC(=O)[C@H](CC(C)(C)C)NC(=O)[C@H](Cn1cc(CC(C)(C)C(=O)O)nn1)NC2=O (stereo partly drawn) [I-2329, Ac-PL3-[CH2CMe2CO2H]TriAzDap-Npg-B5-Asp-Asp-Ala-Ala-Phe-Asn-PyrS2-3Thi-BztA-Gln-NH2]	
5.41	CC(=O)N1CCC[C@]12CC=CCCCC1(CCCC=CCCCOC(=O)N3CC[C@@](C(=O)N[C@@H](Cc4ccsc4)C(=O)N[C@@H](Cc4csc5ccccc45)C(=O)N[C@@H](CCC(N)=O)C(N)=O)(C3)NC(=O)[C@H](CC(N)=O)NC(=O)[C@H](Cc3ccccc3)NC(=O)[C@H](C)NC(=O)[C@H](C)NC(=O)[C@H](CC(=O)O)NC(=O)[C@H](CC(=O)O)NC1=O)NC(=O)[C@H](CC(C)(C)C)NC(=O)[C@H](Cn1cc(C(C)(C)C(=O)O)nn1)NC2=O (stereo partly drawn) [I-2330, Ac-PL3-[CMe2CO2H]TriAzDap-Npg-B5-Asp-Asp-Ala-Ala-Phe-Asn-PyrS2-3Thi-BztA-Gln-NH2]	
6.18	CC(=O)N1CCC[C@]12CC=CCCCC1(CCCC=CCCCOC(=O)N3CC[C@@](C(=O)N[C@@H](Cc4ccsc4)C(=O)N[C@@H](Cc4csc5ccccc45)C(=O)N[C@@H](C)C(N)=O)(C3)NC(=O)[C@H]([C@@H](C)O)NC(=O)[C@H](Cc3ccccc3)NC(=O)[C@H](C)NC(=O)[C@H](C)NC(=O)[C@H]([C@@H](C)O)NC(=O)[C@H](CC(N)=O)NC1=O)NC(=O)[C@H](CC(C)(C)C)NC(=O)[C@H](CC(=O)O)NC2=O (stereo partly drawn) [I-2334, Ac-PL3-Asp-Npg-B5-Asn-Thr-Ala-Ala-Phe-Thr-PyrS2-3Thi-BztA-Ala-NH2]	
8.15	CC(=O)N1CCC[C@]12CC=CCCCC1(CCCC=CCCCOC(=O)N3CC[C@@](C(=O)N[C@@H](Cc4ccsc4)C(=O)N[C@@H](Cc4csc5ccccc45)C(=O)N[C@@H](CCC(N)=O)C(N)=O)(C3)NC(=O)[C@H](CC(N)=O)NC(=O)[C@H](Cc3ccccc3)NC(=O)[C@H](C)NC(=O)[C@H](C)NC(=O)[C@H](Cc3cccc(C(=O)O)c3)NC(=O)[C@H](CC(N)=O)NC1=O)NC(=O)[C@H](CC(C)(C)C)NC(=O)[C@H](CC(=O)O)NC2=O (stereo partly drawn) [I-2335, Ac-PL3-Asp-Npg-B5-Asn-3COOHF-Ala-Ala-Phe-Asn-PyrS2-3Thi-BztA-Gln-NH2]	

SMILES	pIC50	IC50 [nM]
CC(C)C[C@@H]1NC(=O)[C@H](Cc2ccccc2)NC(=O)[C@H](C)NC(=O)[C@H](C)NC(=O)[C@H](Cc2cccc(C(=O)O)c2)NC(=O)[C@H](CC(=O)O)NC(=O)C2(CCCC=CCCCOC(=O)N3CC[C@@](C(=O)N[C@@H](Cc4ccccc4Cl)C(=O)N[C@@H](Cc4csc5ccccc45)C(=O)N[C@@H](C)C(N)=O)(C3)NC1=O)CCCC=CC[C@]1(CCCN1C(=O)OC1CCCCC1)C(=O)N[C@@H](CC(=O)O)C(=O)N[C@@H](CC(C)(C)C)C(=O)N2 (stereo partly drawn) [I-2325, CO2Hex-PL3-Asp-Npg-B5-Asp-3COOHF-Ala-Ala-Phe-Leu-PyrS2-2C1F-BztA-Ala-NH2]	5.87	
CC(=O)N1CCC[C@]12CC=CCCCC1(CCCC=CCCCOC(=O)N3CC[C@@](C(=O)N[C@@H](Cc4ccsc4)C(=O)N[C@@H](Cc4csc5ccccc45)C(=O)N[C@@H](Cc4c[nH]cn4)C(N)=O)(C3)NC(=O)[C@H]([C@@H](C)O)NC(=O)[C@H](Cc3ccccc3)NC(=O)[C@H](C)NC(=O)[C@H](C)NC(=O)[C@H]([C@@H](C)O)NC(=O)[C@H](CC(N)=O)NC1=O)NC(=O)[C@H](CC(C)(C)C)NC(=O)[C@H](CC(=O)O)NC2=O (stereo partly drawn) [I-2337, Ac-PL3-Asp-Npg-B5-Asn-Thr-Ala-Ala-Phe-Thr-PyrS2-3Thi-BztA-His-NH2]	6.51	
